# Laboratory results taken from ChEMBL document CHEMBL1201862, “PubChem BioAssay data set” (2004).
# Several values for one entry are separate records, joined by “and”; a condition that tells them apart may be missing. Identical values can stand only once.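 Briefly, cells in 96-well plates were exposed to five compound concentrations for 48 h, and endpoints were estimated by linear interpolation. Here, GI50 denotes the concentration required for 50% inhibition of growth.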 Activity calls are given as the source filed them. No stated cut-off is given here; in the data, active = GI50 up to about 1.1 µM and inactive = higher.
# Tests used:
# Test in all cases: growth of human tumour cells (NCI), 48 h
# ACHN = test system: ACHN
# EKVX = test system: EKVX
# HCT-15 = test system: HCT-15
# HOP-62 = test system: HOP-62
# KM12 = test system: KM12
# M14 = test system: M14
# MDA-N = test system: MDA-N
# NCI-H460 = test system: NCI-H460
# NCI/ADR-RES = test system: NCI/ADR-RES
# OVCAR-5 = test system: OVCAR-5
# OVCAR-8 = test system: OVCAR-8
# SF-268 = test system: SF-268
# SK-MEL-5 = test system: SK-MEL-5
# SN12C = test system: SN12C
# T47D = test system: T47D
# UACC-257 = test system: UACC-257
# UO-31 = test system: UO-31
# LOX IMVI = test system: LOX IMVI
# SK-MEL-28 = test system: SK-MEL-28
# HOP-92 = test system: HOP-92
Structure (SMILES),GI50 (ACHN),GI50 (EKVX),GI50 (HCT-15) [µM],GI50 (HOP-62),GI50 (KM12),GI50 (M14),GI50 (MDA-N),GI50 (NCI-H460),GI50 (NCI/ADR-RES),GI50 (OVCAR-5),GI50 (OVCAR-8),GI50 (SF-268),GI50 (SK-MEL-5),GI50 (SN12C),GI50 (T47D),GI50 (UACC-257),GI50 (UO-31),GI50 (LOX IMVI),GI50 (SK-MEL-28),GI50 (HOP-92)
COc1ccccc1-c1nc(O)c2ccccc2n1,> 100 µM (inactive),59.6 µM (inactive),> 100,> 100 µM (inactive),> 100 µM (inactive),> 100 µM (inactive),> 100 µM (inactive),> 100 µM (inactive),> 100 µM (inactive),> 100 µM (inactive),> 100 µM (inactive),> 100 µM (inactive),> 100 µM (inactive),56 µM (inactive),49.9 µM (inactive),> 100 µM (inactive),> 100 µM (inactive),–,–,–
CC(=O)OC1COC(n2c(N)c(C#N)c(C)c(C#N)c2=S)C(OC(C)=O)C1OC(C)=O (stereo not drawn),59.6 µM (inactive),–,> 100,> 100 µM (inactive),> 100 µM (inactive),> 100 µM (inactive),> 100 µM (inactive),> 100 µM (inactive),> 100 µM (inactive),> 100 µM (inactive),> 100 µM (inactive),> 100 µM (inactive) and 85.5 µM (inactive),> 100 µM (inactive),> 100 µM (inactive),55.3 µM (inactive) and 58.3 µM (inactive),> 100 µM (inactive),> 100 µM (inactive),> 100 µM (inactive),> 100 µM (inactive),–
Clc1ccc(C2=CCN3CC=C(c4ccc(Cl)cc4)C23)cc1,13.7 µM (inactive),15.3 µM (inactive),11.1,13.8 µM (inactive),6.64 µM (inactive),7.28 µM (inactive),10.8 µM (inactive),9.98 µM (inactive),12.2 µM (inactive),3.78 µM (inactive),14.2 µM (inactive),7.96 µM (inactive),2.47 µM (inactive),8.71 µM (inactive),12.7 µM (inactive),11.8 µM (inactive),6.81 µM (inactive),8.34 µM (inactive),13.9 µM (inactive),–
Cc1cccc(N/C(Sc2ccccc2)=C(/C(Cl)=C(Cl)Cl)[N+](=O)[O-])c1,26.4 µM (inactive),16.9 µM (inactive),15.3,20.3 µM (inactive),23.1 µM (inactive),18.8 µM (inactive),19.4 µM (inactive),35 µM (inactive),15.8 µM (inactive),15.1 µM (inactive),16.1 µM (inactive),17.8 µM (inactive),–,15.3 µM (inactive),18 µM (inactive),20.8 µM (inactive),14.7 µM (inactive),–,17.4 µM (inactive),–
CC1(C)OC[C@@H](O)[C@H](Br)CO1,> 100 µM (inactive),> 100 µM (inactive),> 100,> 100 µM (inactive),> 100 µM (inactive),> 100 µM (inactive),> 100 µM (inactive),> 100 µM (inactive),–,> 100 µM (inactive),> 100 µM (inactive),53.8 µM (inactive),–,> 100 µM (inactive),> 100 µM (inactive),> 100 µM (inactive),> 100 µM (inactive),> 100 µM (inactive),> 100 µM (inactive),–
CC(C)C1=CC(=O)[C@@](C)(C2[C@H](O)C[C@@]3(C)[C@@H]4CC=C5[C@@H](CC[C@@H](OC6OCC(O)C(O)C6OC6OC(C)C(O)C(O)C6O)C5(C)C)[C@]4(C)C(=O)C[C@]23C)O1 (stereo partly drawn),> 100 µM (inactive),> 100 µM (inactive),> 100,> 100 µM (inactive),> 100 µM (inactive),> 100 µM (inactive),> 100 µM (inactive),> 100 µM (inactive),> 100 µM (inactive),> 100 µM (inactive),> 100 µM (inactive),> 100 µM (inactive),> 100 µM (inactive),> 100 µM (inactive),> 100 µM (inactive),–,> 100 µM (inactive),–,> 100 µM (inactive),> 100 µM (inactive)
Cc1[nH]c2c(c1Cc1ccccc1)C1=NC=C(O)NN1C=N2,44.3 µM (inactive),> 100 µM (inactive),45.3,> 100 µM (inactive),> 100 µM (inactive),> 100 µM (inactive),> 100 µM (inactive),36.4 µM (inactive),> 100 µM (inactive),> 100 µM (inactive),51.4 µM (inactive),94.2 µM (inactive),70 µM (inactive),> 100 µM (inactive),14.4 µM (inactive),> 100 µM (inactive),> 100 µM (inactive),–,> 100 µM (inactive),–
O=c1cc(-c2ccccc2)[nH]c2cccc(S)c12,0.804 µM (active),> 100 µM (inactive),0.344,0.331 µM (active),0.277 µM (active),0.857 µM (active),0.0246 µM (active),0.301 µM (active),0.0796 µM (active),> 100 µM (inactive),0.324 µM (active),1.25 µM (inactive),0.0944 µM (active),0.462 µM (active),8.32 µM (inactive),0.0762 µM (active),–,–,0.564 µM (active),0.288 µM (active)
CCC(=O)C1(N2CCOCC2)CCN(CCCC(=O)c2ccc(F)cc2)CC1,> 100 µM (inactive),> 100 µM (inactive),> 100,> 100 µM (inactive),> 100 µM (inactive),> 100 µM (inactive),> 100 µM (inactive),> 100 µM (inactive),> 100 µM (inactive),> 100 µM (inactive),> 100 µM (inactive),> 100 µM (inactive),> 100 µM (inactive),> 100 µM (inactive),> 100 µM (inactive),–,> 100 µM (inactive),> 100 µM (inactive),> 100 µM (inactive),–
O=C(CSCC(=O)N/N=C/c1ccccc1)N/N=C\c1ccccc1,> 100 µM (inactive),> 100 µM (inactive),> 100,> 100 µM (inactive),16.7 µM (inactive),> 100 µM (inactive),–,> 100 µM (inactive),> 100 µM (inactive),> 100 µM (inactive),> 100 µM (inactive),> 100 µM (inactive),> 100 µM (inactive),> 100 µM (inactive),77.6 µM (inactive),> 100 µM (inactive),> 100 µM (inactive),> 100 µM (inactive),> 100 µM (inactive),> 100 µM (inactive)
CO/C=C(/C(=O)OC)c1ccccc1[C@@H]1CC1c1cccc(F)c1 (stereo partly drawn),23.2 µM (inactive),30.5 µM (inactive),23.4,51.6 µM (inactive),24.7 µM (inactive),19.8 µM (inactive),22.1 µM (inactive),26.6 µM (inactive),30.5 µM (inactive),> 100 µM (inactive),33.5 µM (inactive),37.5 µM (inactive),12.3 µM (inactive),29.6 µM (inactive),20.4 µM (inactive),19.9 µM (inactive),31.8 µM (inactive),–,39.4 µM (inactive),23.3 µM (inactive)
